Data from US12415777B2, “Fluorene derivative, and production method and use for same” (Osaka Gas Chemicals Co., Ltd., priority 2020, dated 2025).

Key:
[1] = 5% mass reduction temperature (TG-DTA); format: physicochemical; conditions: nitrogen atmosphere, 50 to 400° C., heating rate 10° C./min
Method: (5% Mass Reduction Temperature)
The temperature, at which the mass of the sample is reduced by 5% by mass, was measured using a Thermogravimeter-Differential Thermal Analyzer (TG-DTA) (manufactured by PerkinElmer, Inc., “TGA-4000”) in a nitrogen atmosphere, under the condition of a measurement temperature range of 50 to 400° C. with a heating rate of 10° C./min.

Solvent solubility test = format: physicochemical; parameters: key: A: Soluble; B: Soluble, but undissolved residue was visually confirmed; C: Insoluble; conditions: 3% by mass, stood overnight at room temperature (15 to 25° C.), visually observed; for Solubility in Dioxane: 1,4-dioxane; for Solubility in IPA: isopropanol; for Solubility in MEK: methyl ethyl ketone; for Solubility in MIBK: methyl isobutyl ketone; for Solubility in THF: tetrahydrofuran
Method: (Solvent Solubility Test)
For each sample and solvent, a sample and a solvent shown in Table 1 below were mixed in a concentration of 3% by mass, and a mixture was shaken by hand for about 10 minutes, and then allowed to stand overnight at a room temperature (temperature of 15 to 25° C.). After that, the solubility of the sample was visually observed and evaluated according to the following criteria. • A: Soluble • B: Soluble, but undissolved residue was visually confirmed • C: Insoluble (Flexural Test)
The results of the solubility test of the fluorene derivatives obtained in Examples 1 to 3 and Comparative Example 1 are shown in Table 1. In Table 1, IPA represents isopropanol, MEK represents methyl ethyl ketone, MIBK represents methyl isobutyl ketone, dioxane represents 1,4-dioxane, and THF represents tetrahydrofuran. As NIPAM-FL, the one prepared in Example 3A was used.

| Compound | 5% mass reduction temperature [1] [°C] | Solubility in Dioxane (Solvent solubility test) | Solubility in Acetone (Solvent solubility test) | Solubility in Chloroform (Solvent solubility test) | Solubility in Ethanol (Solvent solubility test) | Solubility in Ethyl acetate (Solvent solubility test) | Solubility in Hexane (Solvent solubility test) | Solubility in Methanol (Solvent solubility test) | Solubility in Toluene (Solvent solubility test) | Solubility in Water (Solvent solubility test) | Solubility in IPA (Solvent solubility test) | Solubility in MEK (Solvent solubility test) | Solubility in MIBK (Solvent solubility test) | Solubility in THF (Solvent solubility test) |
| --- | --- | --- | --- | --- | --- | --- | --- | --- | --- | --- | --- | --- | --- | --- |
| NC(=O)CCC1(CCC(N)=O)c2ccccc2-c2ccccc21 [AAD-FL, 9,9-di-(β-carbamoyl-ethyl)fluorene, reference compound] | 320 | C | C | C | C | C | C | C | C | C | C | C | B | C |
| CCN(CC)C(=O)CCC1(CCC(=O)N(CC)CC)c2ccccc2-c2ccccc21 [DEAA-FL, 9,9-bis[2-(N,N-diethylcarbamoyl)ethyl]fluorene] | 294 | A | A | A | A | A | C | A | A | C | A | A | A | A |
| CN(C)C(=O)CCC1(CCC(=O)N(C)C)c2ccccc2-c2ccccc21 [DMAA-FL, 9,9-bis[2-(N,N-dimethylcarbamoyl)ethyl]fluorene] | 318 | C | C | A | A | C | C | A | C | C | C | C | A | A |
| CC(C)NC(=O)CCC1(CCC(=O)NC(C)C)c2ccccc2-c2ccccc21 [NIPAM-FL, 9,9-bis[2-(N-isopropylcarbamoyl)ethyl]fluorene] | 257 | C | C | C | C | C | C | A | C | C | C | C | B | C |
